{"source": "patent US6015831A", "about": "“Thiophene nitrone compounds” (Centaur Pharmaceuticals, Inc., priority 1999, dated 2000)", "key": {"[1]": {"test_system": "synthetic Aβ(1-42)", "assay": "Inhibition of Aβ beta-pleated sheet formation (thioflavin T fluorescence)", "type": "biochemical", "details": "test compound 10 μM, ThT 3 μM, PBS pH 6.0, 12 hours; stated as alternative: this 'or' IL-1β release, tested in at least one test", "source_text": "The deposition of amyloid β-peptide (Aβ) is associated with the development of Alzheimer's disease. See, for example, G. G. Glenner et al. (1984) Biochem. Biophys. Res. Commun., 120:885-890; and R. E. Tanzi (1989) Ann. Med, 21:91-94. Accordingly, compounds which effectively disrupt the formation of Aβ(1-40) or Aβ(1-42) beta-pleated sheets are potentially useful for preventing and/or reversing such amyloid deposits. Thioflavin T (ThT) is known to rapidly associate with beta-pleated sheets, particularly the aggregated fibrils of synthetic Aβ(1-42). This association gives rise to an excitation maximum at 440 nm and to an emission at 490 nm.\nThe experiments were performed using a CytoFluor II fluorescence plate reader having the following parameters:\nInto each well was aliquoted 95 μl of ThT (3 μM) prepared in PBS (pH 6.0), 2 μL of the compound to be tested (10 μM) prepared with 0.05% of methylcellulose in PBS (pH 6.0), and 3 μL of Aβ(1-42)(3 μg) prepared with dH2 O. The fluorescence measurement began when the Aβ(1-42) was added and continued for a total of 12 hours. The percent inhibition of beta-pleated sheet formation was calculated from the relative fluorescence unit difference between aggregation in the presence and in the absence of the test compounds. Inhibition of Aβ(1-42) beta-pleated sheet formation by at least 30% compared to the controls is considered significant in this test."}, "[2]": {"test_system": "IL-1β release, THP-1 cells", "assay": "Reduction of β-amyloid-induced increased release of interleukin-1β in LPS-stimulated THP-1 cells (ELISA)", "type": "cell-based", "details": "Homo sapiens, test compound 100 μM, LPS 0.5 μg/mL + Aβ(25-35) 5 μM, 48 hours, stated as alternative: this 'or' Aβ(1-42) sheet formation, tested in at least one test, read-out: inhibition of β-amyloid-induced increase release of interleukin-1β compared to the controls", "experimental": "THP-1 cells, a human monocyte cell line from American Type Culture Collection, were grown in RPMI-1640 medium plus 10% fetal bovine serum (FBS, not heat-inactivated) in T-flasks. The medium was changed every two days by spinning down the cells (800 rpm, 5 minutes) and adding the same fresh medium. Alternatively, the cultures were maintained by supplementation with fresh medium. The cultures were maintained at a cell concentration ranging from between 1×10^5 and 1×10^6 cells/mL. Because sera may contain unknown factors which can affect macrophage/monocyte IL-1 production, the FBS was reduced to 5% for 24 hours. The FBS was further reduced to 2% over two days prior to starting each experiment. The cells were collected by centrifugation and resuspended in media containing 2% FBS. Cell numbers were calculated and cells were plated on 24-well plates (3×10^5 cells/0.6 mL/well). Cells were then treated with LPS (0.5 μg/mL) alone or in combination with Aβ peptides (5 μM). […]\n1L-1β secretions into medium by LPS-stimulated THP-1 cells, in the presence or absence of amyloid peptides and a test compound, were assayed with a commercially available ELISA kit (R & D Systems). […] Color development was stopped with 2 N sulfuric acid and the optical density of the standard and the test samples was measured at 450 nm. The amount of IL-1β present in the samples were calculated based upon a standard curve. […]"}}}
{"compound": "COc1ccc(Sc2ccc(C=[N+]([O-])C(C)(C)C)s2)cc1", "note": "[Example 1, α-[2-(4-Methoxyphenylthio)-5-thienyl]-N-tert-butylnitrone]", "values": [{"measurement": "inhibition of Aβ(1-42) beta-pleated sheet formation compared to the controls", "setting": "[1]", "value": "at least 30%"}, {"measurement": "inhibition at 100 µM", "setting": "[2]", "value": "≥ 30", "unit": "%"}]}
{"compound": "COc1ccc(Sc2ccc(C=[N+]([O-])C3CCCCC3)s2)cc1", "note": "[Example 2, α-[2-(4-Methoxyphenylthio)-5-thienyl]-N-cyclohexylnitrone]", "values": [{"measurement": "inhibition of Aβ(1-42) beta-pleated sheet formation compared to the controls", "setting": "[1]", "value": "at least 30%"}, {"measurement": "inhibition at 100 µM", "setting": "[2]", "value": "≥ 30", "unit": "%"}]}
